According to ChEMBL document CHEMBL1133338, “Novel 3-(4-piperidinylthio)-1H-indoles as potent nonopioid orally active central analgesics” (Bioorg Med Chem Lett, 2000):

Columns and labels:
Mus musculus [1] = assay: Compound (at 30 mg/kg) was evaluated in vivo for the inhibition of phenylbenzoquinone induced painful reactions in mice; type: functional
Mus musculus [2] = assay: In vivo analgesic activity in phenylbenzoquinone-induced writhing test in mice; type: functional
Mus musculus [3] = assay: In vivo analgesic activity in hot plate test in mice; type: functional
Mus musculus [4] = species on record: Mus musculus; assay: Effective dose in mice by tail pinch test
Rattus norvegicus [5] = species on record: Rattus norvegicus; assay: Compound was tested for inhibition of Freund's adjuvant-induced polyarthritis in rats; type: functional
Rattus norvegicus [6] = species on record: Rattus norvegicus; assay: Compound was tested for inhibition of kaolin induced arthritis in rats
Mus musculus [7] = assay: Compound (at 30 mg/kg) was evaluated in vivo for the inhibition of painful reactions in mice in the hot plate test; type: functional
Rattus norvegicus [8] = assay: Compound after peroral administration was tested for inhibition of kaolin-induced arthritis in rats; type: functional; conditions: po
Rattus norvegicus [9] = assay: Compound (at 60 mg/kg perorally) was tested for inhibition of Freund's adjuvant-induced polyarthritis in rats; type: functional; conditions: route oral
[10] = biological target: Sodium-dependent serotonin transporter (Rattus norvegicus, UniProt P31652); assay: Binding affinity on Serotonin transporter was determined in rat
Sodium-dependent serotonin transporter, sequence (P31652 whole entry): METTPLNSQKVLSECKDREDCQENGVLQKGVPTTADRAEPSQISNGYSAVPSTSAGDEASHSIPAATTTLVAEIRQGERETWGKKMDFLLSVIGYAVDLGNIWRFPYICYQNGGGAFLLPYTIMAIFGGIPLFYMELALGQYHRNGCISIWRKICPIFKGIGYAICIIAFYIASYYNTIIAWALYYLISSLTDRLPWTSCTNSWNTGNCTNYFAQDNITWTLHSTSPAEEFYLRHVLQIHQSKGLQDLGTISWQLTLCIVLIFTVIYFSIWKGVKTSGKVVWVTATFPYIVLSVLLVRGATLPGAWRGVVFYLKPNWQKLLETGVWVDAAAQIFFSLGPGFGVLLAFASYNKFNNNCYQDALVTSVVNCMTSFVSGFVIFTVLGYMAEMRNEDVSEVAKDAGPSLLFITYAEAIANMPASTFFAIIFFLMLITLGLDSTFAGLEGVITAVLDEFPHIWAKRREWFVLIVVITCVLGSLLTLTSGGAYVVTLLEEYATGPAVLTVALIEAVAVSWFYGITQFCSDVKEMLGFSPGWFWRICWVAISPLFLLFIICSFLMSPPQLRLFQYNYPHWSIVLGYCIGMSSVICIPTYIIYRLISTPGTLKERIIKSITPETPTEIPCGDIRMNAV

Mus musculus [11] = assay: Effective dose in mice after intraperitoneal administration by tail pinch test; type: functional; conditions: ip

| SMILES | inhibition in vivo at 30 mg/kg (Mus musculus [1]) | ED50 (Mus musculus [2]) | ED50 (Mus musculus [3]) | also measured |
| --- | --- | --- | --- | --- |
| CN1CCC(Sc2c[nH]c3ccccc23)CC1 | 26% | – | – | – |
| Cc1c(SC2CCNCC2)c2cc(Cl)ccc2n1Cc1ccc(Cl)cc1 | 27% | – | – | – |
| CN1CCC(Sc2c[nH]c3ccc(I)cc23)CC1 | – | 54.2 mg/kg | – | – |
| Clc1ccc2[nH]cc(SC3CCNCC3)c2c1 | – | 0.3 mg/kg | 1.2 mg/kg | – |
| CN1CC[C@]23c4c5ccc(O)c4O[C@H]2[C@@H](O)C=C[C@H]3[C@H]1C5 [MORPHINE] | – | – | 28.9 mg/kg | ED50 (Mus musculus [4]): 15 mg/kg; Dose (Rattus norvegicus [5]): 5.2 mg/kg; ED50 (Rattus norvegicus [6]): 4.4 mg/kg |
| CON1CCC(Sc2cn(C)c3ccc(C(=O)O)cc23)CC1 | 25% | – | – | – |
| Clc1ccc2[nH]cc(SC3CCN(CCc4ccccc4)CC3)c2c1 | – | 8.9 mg/kg | – | inhibition in vivo at 30 mg/kg (Mus musculus [7]): 14% |
| CCCC(=O)N1CCC(Sc2c[nH]c3ccc(Cl)cc23)CC1 | – | 8.9 mg/kg | 22.7 mg/kg | – |
| CN1CCC(S(=O)(=O)c2c[nH]c3ccc(Cl)cc23)CC1 | – | 5.4 mg/kg | 16 mg/kg | – |
| CC(=O)N1CCC(Sc2c[nH]c3ccc(Br)cc23)CC1 | – | 2.9 mg/kg | 2.8 mg/kg | – |
| CN1CCC(Sc2cn(C)c3ccc(Br)cc23)CC1 | – | 5.4 mg/kg | 8.6 mg/kg | – |
| CN1CCC([S+]([O-])c2c[nH]c3ccc(Cl)cc23)CC1 (stereo not given) | 44% | – | – | – |
| Cc1[nH]c2ccc(C(F)(F)F)cc2c1SC1CCNCC1 | – | 19.4 mg/kg | – | inhibition in vivo at 30 mg/kg (Mus musculus [7]): 41% |
| CON1CCC(Sc2c[nH]c3ccc(Cl)cc23)CC1 | – | 1.4 mg/kg | 2.3 mg/kg | – |
| CN1CCC(Sc2cn(C)c3ccc(Cl)cc23)CC1 | – | 3.9 mg/kg | 9.3 mg/kg | – |
| O=S(=O)(c1c[nH]c2ccc(Cl)cc12)C1CCNCC1 | – | 12.5 mg/kg | 8.4 mg/kg | – |
| CCCCn1cc(SC2CCN(C)CC2)c2cc(Br)ccc21 | 21% | – | – | – |

| SMILES | inhibition in vivo at 30 mg/kg (Mus musculus [1]) | ED50 (Mus musculus [2]) | ED50 (Mus musculus [3]) | also measured |
| --- | --- | --- | --- | --- |
| CC(=O)N1CCC(Sc2c[nH]c3ccc(Cl)cc23)CC1 | – | 2.9 mg/kg | 3.8 mg/kg | – |
| Cc1[nH]c2ccc(Cl)cc2c1SC1CCNCC1 | – | 0.8 mg/kg | 9.9 mg/kg | – |
| CN1CCC(Sc2c[nH]c3ccc(O)cc23)CC1 | 9% | – | – | – |
| O=CN1CCC(Sc2c[nH]c3ccc(Br)cc23)CC1 | 31% | – | – | – |
| CC(C)c1ccc2[nH]cc(SC3CCN(C)CC3)c2c1 | 48% | – | – | – |
| Cc1[nH]c2ccc(Br)cc2c1SC1CCNCC1 | – | 0.7 mg/kg | 3.1 mg/kg | – |
| Cc1[nH]c2ccc(F)cc2c1SC1CCN(C)CC1 | – | 35.6 mg/kg | – | – |
| CC(C)N1CCC(Sc2c[nH]c3ccc(Cl)cc23)CC1 | 38% | – | – | – |
| CCN1CCC(Sc2c[nH]c3ccc(Cl)cc23)CC1 | 42% | – | 33.3 mg/kg | – |
| Clc1ccc(-c2[nH]c3ccc(Cl)cc3c2SC2CCNCC2)cc1 | 26% | – | – | – |
| CON1CCC(Sc2c[nH]c3ccc(Br)cc23)CC1 | – | 1.6 mg/kg | 3.2 mg/kg | – |
| CN1CCC(Sc2c[nH]c3ccc(Cl)cc23)CC1 | – | 4 mg/kg | 16.9 mg/kg | ED50 (Rattus norvegicus [8]): 4.9 mg/kg; inhibition in vivo at 60 mg/kg (Rattus norvegicus [9]): 62%; Ki [10]: 3.01 nM; ED50 (Mus musculus [11]): 25.3 mg/kg |
| CCOC(=O)N1CCC(Sc2c[nH]c3ccc(Br)cc23)CC1 | – | 6.3 mg/kg | 27.3 mg/kg | – |
| Cc1[nH]c2ccc(F)cc2c1SC1CCNCC1 | – | 5.9 mg/kg | 12.7 mg/kg | – |
| COc1ccc2[nH]cc(SC3CCN(C)CC3)c2c1 | – | 24.9 mg/kg | – | – |
| Clc1ccc2[nH]cc(SC3CCN(Cc4ccccc4)CC3)c2c1 | – | 9.7 mg/kg | – | inhibition in vivo at 30 mg/kg (Mus musculus [7]): 32% |
| Cc1ccc2[nH]cc(SC3CCN(C)CC3)c2c1 | 25% | – | – | – |
